ChEMBL document CHEMBL1151487, “DHPMP: a novel group I specific metabotropic glutamate receptor agonist” (Bioorg Med Chem Lett, 1996)

Tests used:
Cavia porcellus = species on record: Cavia porcellus; test: Compound was evaluated for inhibition of forskolin-stimulated cAMP generation at Group II and Group III mGluRs; assay type: functional
[1] = Compound was evaluated for its activity at group I mGluRs for the generation of [3H]inositol phosphate using [3H]inositol pre-labelled guinea-pig cerebral cortex slices.; assay type: tissue-based, Cavia porcellus

SMILES | EC50 (Cavia porcellus) | Log EC50 [1]
NC(c1cc(O)cc(O)c1)[PH](=O)O (stereo not drawn) | 2090 nM | -4.56
N[C@H](C(=O)O)c1cc(O)cc(O)c1 |  | -4.9
